Patent US20220348590A1, “CYCLOOXYGENASE-2 INHIBITORS AND USES THEREOF” (The Board Institute, Inc., priority 2019, published 2022)
“Also recorded” adds a separate entry of the source.

Key:
[1] = target: T1, human recombinant COX2 (hCOX2) (UniProt P35354); test: LCMS-based COX2 enzymatic inhibition assay (PGE2 quantification); assay type: biochemical; set-up: improvement in potency; other: COX2 potency relative to MC1 / earlier ligand; comparator not always stated; other: vs MC1 (MC-1)
T1 sequence (P35354 1-604): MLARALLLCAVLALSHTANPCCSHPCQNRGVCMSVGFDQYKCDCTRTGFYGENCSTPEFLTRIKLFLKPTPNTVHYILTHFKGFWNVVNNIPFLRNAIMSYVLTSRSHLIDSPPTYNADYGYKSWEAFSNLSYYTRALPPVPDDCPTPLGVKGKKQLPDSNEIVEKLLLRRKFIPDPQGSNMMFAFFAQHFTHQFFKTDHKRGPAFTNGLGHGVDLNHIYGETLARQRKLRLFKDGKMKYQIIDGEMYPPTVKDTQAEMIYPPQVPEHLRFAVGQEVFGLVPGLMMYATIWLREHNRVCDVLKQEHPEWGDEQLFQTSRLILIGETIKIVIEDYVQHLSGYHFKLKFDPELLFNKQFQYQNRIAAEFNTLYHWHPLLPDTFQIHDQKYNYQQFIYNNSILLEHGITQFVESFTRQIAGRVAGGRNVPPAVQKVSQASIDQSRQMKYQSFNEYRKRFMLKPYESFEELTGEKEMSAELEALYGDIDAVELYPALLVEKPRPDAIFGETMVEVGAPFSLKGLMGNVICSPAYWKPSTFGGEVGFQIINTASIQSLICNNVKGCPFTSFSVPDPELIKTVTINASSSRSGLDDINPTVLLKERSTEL
Method: We have adapted a previously reported cyclooxygenase enzymatic assay utilizing LCMS quantification of PGE2 as the product of COX-1 and COX2 catalyzed conversion of arachidonic acid to evaluate the binding properties of newly synthesized ligands [Cao, 2011]. These optimized and miniaturized (384-well plates) LCMS-based COX-1 and COX2 enzymatic assays enabled us to quickly evaluate newly synthesized ligands for COX2 binding affinity and selectivity vs COX-1. Using a shorter ligand-enzyme incubation time in the LCMS assay (2 minutes vs 10 minutes) also permitted us to prioritize ligands with faster binding kinetics. Considering the relatively slow on-rate kinetics of known coxibs, due to their 3-step binding mechanism [Marnett, 2009], we believe that optimizing this critical parameter will be key to the successful development of a COX2 PET tracer. Using these enzymatic assays, we have evaluated>200 newly synthesized ligands against COX2 and >20 ligands against COX-1. Another critical property necessary for a good PET radiotracer is to have low non-specific binding (NSB) to increase the free fraction and maximize the signal to noise ratio. This property can be evaluated using in-vitro protein binding assays, and we have now evaluated>50 newly synthesized ligands in mouse, rat and human plasma protein binding (PPB) assays as well as >15 ligands in a mouse brain protein binding (BPB) assay.
Ovine COX-1 (oCOX-1), ovine COX2 (oCOX2), human recombinant COX2 (hCOX2), arachidonic acid, PGE2, d4-PGD2, and […] (labeled with deuterium atoms at positions 3 and 4) were purchased from Cayman Chemicals (Ann Arbor, Mich.). The cofactors (−)epinephrine and hematin, and the COX inhibitors indomethacin, resveratrol and diclofenac were purchased from Sigma-Aldrich (St. Louis, Mo.). Celecoxib was purchased from 3B PharmaChem International (Wuhan, China). All organic solvents were HPLC grade or better and were purchased from Thermo Fisher (Hanover Park, Ill.). Formic acid was purchased from EMD Chemicals (San Diego, Calif.). Purified water was prepared by using a Millipore Milli-Q purification system (Millipore, Billerica, Mass.). All other chemicals and solvents were ACS reagent grade, unless stated otherwise.
In an Eppendorf tube, 146 μL of 100 mM Tris.HCl (pH 8.0) buffer, 2 μL of 100 μM hematin (co-factor) and 10 μL of 40 mM L-epinephrine (co-factor) were mixed at room temperature. […]
The concentration of PGE2 in each sample was measured using LC-MS-MS, and the percent of COX inhibition by each test solution was determined by comparing the amount of PGE2 produced in the experiment with that produced in the negative control incubation. The formation of PGD2 was measured for quality control purposes, since the levels of PGD2 should be proportional to those of PGE2. […]

[2] = Mouse Microsome Stability; assay type: in vitro ADME; conditions: mouse microsomes

Row | improvement in potency ([1]; COX2 potency relative to MC1 / earlier ligand, comparator not always stated) [fold] | Compound | potency / binding affinity compared to MC1 ([1]; vs MC1 (MC-1)) | Mouse Microsome Stability % Remaining Avg [2] [%]
1 | – | CS(=O)(=O)c1ccc(-c2cncc(NCc3cccs3)n2)cc1 [Compound 98] | maintaining potency; also recorded: equivalent binding affinity | 3
2 | ~4 | CS(=O)(=O)c1ccc(-c2cccc(NCc3ccoc3)n2)cc1 [Compound 47, N-(furan-3-ylmethyl)-6-(4-(methylsulfonyl)phenyl)pyridin-2-amine] | – | –
3 | – | COc1ncc(NCc2cccs2)nc1-c1ccc(S(C)(=O)=O)cc1 [Compound 29] | – | 4.3
